Measured values from the supplement of paper PMC10307832.

How the values were obtained:
Experiment in all cases: relative viability (nuclei count vs DMSO), 5 days (fraction); higher = more cells survive
[1] = tested on: LXF-289
In short: (§1)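 Five library-drug doses in √10 steps were combined with a fixed anchor-drug dose, or a single drug was given alone, by pin tool to lung cancer cell lines in 1536-well plates the day after seeding. Nuclei were stained and counted after 5 days. Relative viability is the nuclei count in treated wells over that in vehicle wells, taken as the median of duplicate plates.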

[2] = tested on: HARA
In short: as §1

[3] = tested on: H3255
In short: as §1

[4] = tested on: NCI-H2405
In short: as §1

[5] = tested on: NCI-H1437
In short: as §1

[6] = tested on: NCI-H23
In short: as §1

[7] = tested on: NCI-H2085
In short: as §1

[8] = tested on: BEN
In short: as §1

[9] = tested on: COR-L 105
In short: as §1

[10] = tested on: HCC-827
In short: as §1

[11] = tested on: NCI-H2228
In short: as §1

[12] = tested on: LC-2-ad
In short: as §1

[13] = tested on: NCI-H322M
In short: as §1

[14] = tested on: CAL-12T
In short: as §1

[15] = tested on: LU99A
In short: as §1

[16] = tested on: NCI-H1792
In short: as §1

[17] = tested on: 201T
In short: as §1

[18] = tested on: UMC-11
In short: as §1

[19] = tested on: RERF-LC-KJ
In short: as §1

[20] = tested on: HCC-15
In short: as §1

[21] = tested on: NCI-H1651
In short: as §1

[22] = tested on: LCLC-103H
In short: as §1

[23] = tested on: LK-2
In short: as §1

Cc1cnc(-c2cnc(NCCNc3ccc(C#N)cn3)nc2-c2ccc(Cl)cc2Cl)[nH]1 + COc1cccc2cc(-c3nc([C@H]4CC[C@H](C(=O)O)CC4)n4ncnc(N)c34)[nH]c12 [OSI-027] (partner 0.5 µM)
relative viability ([1]; first compound 0.08 µM): 0.926
relative viability ([1]; first compound 0.253 µM): 0.777
relative viability ([1]; first compound 0.8 µM): 0.882
relative viability ([1]; first compound 2.53 µM): 0.829
relative viability ([2]; first compound 0.08 µM): 0.554
relative viability ([2]; first compound 0.253 µM): 0.376
relative viability ([2]; first compound 0.8 µM): 0.469
relative viability ([2]; first compound 2.53 µM): 0.562
relative viability ([3]; first compound 0.08 µM): 0.745
relative viability ([3]; first compound 0.253 µM): 0.535
relative viability ([3]; first compound 0.8 µM): 0.616
relative viability ([3]; first compound 2.53 µM): 0.592
relative viability ([4]; first compound 0.08 µM): 0.655
relative viability ([4]; first compound 0.253 µM): 0.654
relative viability ([4]; first compound 0.8 µM): 0.654
relative viability ([4]; first compound 2.53 µM): 0.615
relative viability ([5]; first compound 0.08 µM): 0.896
relative viability ([5]; first compound 0.253 µM): 0.88
relative viability ([5]; first compound 0.8 µM): 0.916
relative viability ([5]; first compound 2.53 µM): 0.976
relative viability ([6]; first compound 0.08 µM): 0.592
relative viability ([6]; first compound 0.253 µM): 0.539
relative viability ([6]; first compound 0.8 µM): 0.58
relative viability ([6]; first compound 2.53 µM): 0.678
relative viability ([7]; first compound 0.08 µM): 0.812
relative viability ([7]; first compound 0.253 µM): 0.786
relative viability ([7]; first compound 0.8 µM): 0.677
relative viability ([7]; first compound 2.53 µM): 0.756
relative viability ([8]; first compound 0.08 µM): 0.352
relative viability ([8]; first compound 0.253 µM): 0.307
relative viability ([8]; first compound 0.8 µM): 0.324
relative viability ([8]; first compound 2.53 µM): 0.371
relative viability ([9]; first compound 0.08 µM): 0.769
relative viability ([9]; first compound 0.253 µM): 0.661
relative viability ([9]; first compound 0.8 µM): 0.694
relative viability ([9]; first compound 2.53 µM): 0.379
relative viability ([10]; first compound 0.08 µM): 0.903
relative viability ([10]; first compound 0.8 µM): 0.814
relative viability ([10]; first compound 2.53 µM): 0.759
relative viability ([11]; first compound 0.08 µM): 0.779
relative viability ([11]; first compound 0.253 µM): 0.807
relative viability ([11]; first compound 0.8 µM): 0.569
relative viability ([11]; first compound 2.53 µM): 0.469
relative viability ([12]; first compound 0.08 µM): 0.886
relative viability ([12]; first compound 0.253 µM): 0.713
relative viability ([12]; first compound 2.53 µM): 0.962
relative viability ([13]; first compound 0.08 µM): 0.641
relative viability ([13]; first compound 0.253 µM): 0.658
relative viability ([13]; first compound 0.8 µM): 0.45
relative viability ([13]; first compound 2.53 µM): 1.3
relative viability ([14]; first compound 0.08 µM): 0.774
relative viability ([14]; first compound 0.253 µM): 0.59
relative viability ([14]; first compound 0.8 µM): 0.565
relative viability ([14]; first compound 2.53 µM): 0.571
relative viability ([15]; first compound 0.08 µM): 0.291
relative viability ([15]; first compound 0.253 µM): 0.304
relative viability ([15]; first compound 0.8 µM): 0.327
relative viability ([15]; first compound 2.53 µM): 0.401
relative viability ([16]; first compound 0.08 µM): 0.866
relative viability ([16]; first compound 0.253 µM): 0.715
relative viability ([16]; first compound 0.8 µM): 0.618
relative viability ([16]; first compound 2.53 µM): 0.666
relative viability ([17]; first compound 0.08 µM): 0.562
relative viability ([17]; first compound 0.8 µM): 0.819
relative viability ([17]; first compound 2.53 µM): 0.768
relative viability ([18]; first compound 0.08 µM): 0.594
relative viability ([18]; first compound 0.253 µM): 0.477
relative viability ([18]; first compound 0.8 µM): 0.591
relative viability ([19]; first compound 0.08 µM): 0.672
relative viability ([19]; first compound 0.253 µM): 0.591
relative viability ([19]; first compound 0.8 µM): 0.454
relative viability ([19]; first compound 2.53 µM): 0.697
relative viability ([20]; first compound 0.08 µM): 0.707
relative viability ([20]; first compound 0.253 µM): 0.665
relative viability ([20]; first compound 0.8 µM): 0.512
relative viability ([20]; first compound 2.53 µM): 0.786
relative viability ([21]; first compound 0.08 µM): 0.797
relative viability ([21]; first compound 0.253 µM): 0.589
relative viability ([21]; first compound 0.8 µM): 0.71
relative viability ([21]; first compound 2.53 µM): 0.801
relative viability ([22]; first compound 0.08 µM): 0.46
relative viability ([22]; first compound 0.253 µM): 0.413
relative viability ([22]; first compound 0.8 µM): 0.428
relative viability ([22]; first compound 2.53 µM): 0.473
relative viability ([23]; first compound 0.08 µM): 0.204
relative viability ([23]; first compound 0.253 µM): 0.248
relative viability ([23]; first compound 0.8 µM): 0.231
relative viability ([23]; first compound 2.53 µM): 0.318

Cc1cnc(-c2cnc(NCCNc3ccc(C#N)cn3)nc2-c2ccc(Cl)cc2Cl)[nH]1 + N=C(N)NC(=N)NCCc1ccccc1 [Phenformin] (partner 250 µM)
relative viability ([1]; first compound 0.08 µM): 0.508
relative viability ([1]; first compound 0.253 µM): 0.482
relative viability ([1]; first compound 0.8 µM): 0.536
relative viability ([1]; first compound 2.53 µM): 0.503
relative viability ([2]; first compound 0.08 µM): 0.451
relative viability ([2]; first compound 0.253 µM): 0.413
relative viability ([2]; first compound 0.8 µM): 0.477
relative viability ([2]; first compound 2.53 µM): 0.412
relative viability ([3]; first compound 0.08 µM): 0.409
relative viability ([3]; first compound 0.253 µM): 0.342
relative viability ([3]; first compound 0.8 µM): 0.317
relative viability ([3]; first compound 2.53 µM): 0.349
relative viability ([4]; first compound 0.08 µM): 0.385
relative viability ([4]; first compound 0.253 µM): 0.418
relative viability ([4]; first compound 0.8 µM): 0.398
relative viability ([4]; first compound 2.53 µM): 0.358
relative viability ([5]; first compound 0.08 µM): 0.304
relative viability ([5]; first compound 0.253 µM): 0.357
relative viability ([5]; first compound 0.8 µM): 0.297
relative viability ([5]; first compound 2.53 µM): 0.295
relative viability ([6]; first compound 0.08 µM): 0.836
relative viability ([6]; first compound 0.253 µM): 0.69
relative viability ([6]; first compound 0.8 µM): 0.742
relative viability ([6]; first compound 2.53 µM): 0.782
relative viability ([7]; first compound 0.08 µM): 0.735
relative viability ([7]; first compound 0.253 µM): 0.688
relative viability ([7]; first compound 0.8 µM): 0.686
relative viability ([7]; first compound 2.53 µM): 0.691
relative viability ([8]; first compound 0.08 µM): 0.232
relative viability ([8]; first compound 0.253 µM): 0.269
relative viability ([8]; first compound 0.8 µM): 0.252
relative viability ([8]; first compound 2.53 µM): 0.261
relative viability ([9]; first compound 0.08 µM): 0.532
relative viability ([9]; first compound 0.253 µM): 0.487
relative viability ([9]; first compound 0.8 µM): 0.53
relative viability ([9]; first compound 2.53 µM): 0.357
relative viability ([10]; first compound 0.08 µM): 0.384
relative viability ([10]; first compound 0.8 µM): 0.362
relative viability ([10]; first compound 2.53 µM): 0.337
relative viability ([11]; first compound 0.08 µM): 0.256
relative viability ([11]; first compound 0.253 µM): 0.357
relative viability ([11]; first compound 0.8 µM): 0.366
relative viability ([11]; first compound 2.53 µM): 0.228
relative viability ([12]; first compound 0.08 µM): 0.591
relative viability ([12]; first compound 0.253 µM): 0.515
relative viability ([12]; first compound 2.53 µM): 0.487
relative viability ([13]; first compound 0.08 µM): 0.815
relative viability ([13]; first compound 0.253 µM): 0.725
relative viability ([13]; first compound 0.8 µM): 0.753
relative viability ([13]; first compound 2.53 µM): 0.931
relative viability ([14]; first compound 0.08 µM): 0.655
relative viability ([14]; first compound 0.253 µM): 0.511
relative viability ([14]; first compound 0.8 µM): 0.597
relative viability ([14]; first compound 2.53 µM): 0.579
relative viability ([15]; first compound 0.08 µM): 0.972
relative viability ([15]; first compound 0.253 µM): 0.769
relative viability ([15]; first compound 0.8 µM): 0.962
relative viability ([15]; first compound 2.53 µM): 0.752
relative viability ([16]; first compound 0.08 µM): 0.464
relative viability ([16]; first compound 0.8 µM): 0.329
relative viability ([16]; first compound 2.53 µM): 0.391
relative viability ([17]; first compound 0.08 µM): 0.469
relative viability ([17]; first compound 0.8 µM): 0.397
relative viability ([17]; first compound 2.53 µM): 0.473
relative viability ([18]; first compound 0.08 µM): 0.339
relative viability ([18]; first compound 0.253 µM): 0.315
relative viability ([18]; first compound 0.8 µM): 0.352
relative viability ([18]; first compound 2.53 µM): 0.376
relative viability ([19]; first compound 0.08 µM): 0.436
relative viability ([19]; first compound 0.253 µM): 0.445
relative viability ([19]; first compound 0.8 µM): 0.426
relative viability ([19]; first compound 2.53 µM): 0.354
relative viability ([20]; first compound 0.08 µM): 0.462
relative viability ([20]; first compound 0.253 µM): 0.415
relative viability ([20]; first compound 0.8 µM): 0.471
relative viability ([20]; first compound 2.53 µM): 0.412
relative viability ([21]; first compound 0.08 µM): 0.383
relative viability ([21]; first compound 0.253 µM): 0.494
relative viability ([21]; first compound 0.8 µM): 0.32
relative viability ([21]; first compound 2.53 µM): 0.324
relative viability ([22]; first compound 0.08 µM): 0.273
relative viability ([22]; first compound 0.253 µM): 0.342
relative viability ([22]; first compound 0.8 µM): 0.31
relative viability ([22]; first compound 2.53 µM): 0.3
relative viability ([23]; first compound 0.08 µM): 0.549
relative viability ([23]; first compound 0.253 µM): 0.501
relative viability ([23]; first compound 0.8 µM): 0.379
relative viability ([23]; first compound 2.53 µM): 0.641
